In ChEMBL document CHEMBL4507276 (2021):

Legend:
Conditions in all cases: Compound concentration 1000.0 nM
[1] = molecular target: Dual specificity mitogen-activated protein kinase kinase 1 (Homo sapiens) (UniProt Q02750)
[2] = molecular target: Mitogen-activated protein kinase kinase kinase 1 (Homo sapiens) (UniProt Q13233)
[3] = molecular target: Activated CDC42 kinase 1 (Homo sapiens) (UniProt Q07912)
[4] = molecular target: Serine/threonine-protein kinase SIK3 (Homo sapiens) (UniProt Q9Y2K2)
[5] = molecular target: Eukaryotic translation initiation factor 2-alpha kinase 1 (Homo sapiens) (UniProt Q9BQI3)
[6] = molecular target: Protein kinase C eta type (Homo sapiens) (UniProt P24723)
[7] = molecular target: T1, Mitogen-activated protein kinase kinase kinase 5 (Homo sapiens) (UniProt Q99683)
T1 sequence (whole entry): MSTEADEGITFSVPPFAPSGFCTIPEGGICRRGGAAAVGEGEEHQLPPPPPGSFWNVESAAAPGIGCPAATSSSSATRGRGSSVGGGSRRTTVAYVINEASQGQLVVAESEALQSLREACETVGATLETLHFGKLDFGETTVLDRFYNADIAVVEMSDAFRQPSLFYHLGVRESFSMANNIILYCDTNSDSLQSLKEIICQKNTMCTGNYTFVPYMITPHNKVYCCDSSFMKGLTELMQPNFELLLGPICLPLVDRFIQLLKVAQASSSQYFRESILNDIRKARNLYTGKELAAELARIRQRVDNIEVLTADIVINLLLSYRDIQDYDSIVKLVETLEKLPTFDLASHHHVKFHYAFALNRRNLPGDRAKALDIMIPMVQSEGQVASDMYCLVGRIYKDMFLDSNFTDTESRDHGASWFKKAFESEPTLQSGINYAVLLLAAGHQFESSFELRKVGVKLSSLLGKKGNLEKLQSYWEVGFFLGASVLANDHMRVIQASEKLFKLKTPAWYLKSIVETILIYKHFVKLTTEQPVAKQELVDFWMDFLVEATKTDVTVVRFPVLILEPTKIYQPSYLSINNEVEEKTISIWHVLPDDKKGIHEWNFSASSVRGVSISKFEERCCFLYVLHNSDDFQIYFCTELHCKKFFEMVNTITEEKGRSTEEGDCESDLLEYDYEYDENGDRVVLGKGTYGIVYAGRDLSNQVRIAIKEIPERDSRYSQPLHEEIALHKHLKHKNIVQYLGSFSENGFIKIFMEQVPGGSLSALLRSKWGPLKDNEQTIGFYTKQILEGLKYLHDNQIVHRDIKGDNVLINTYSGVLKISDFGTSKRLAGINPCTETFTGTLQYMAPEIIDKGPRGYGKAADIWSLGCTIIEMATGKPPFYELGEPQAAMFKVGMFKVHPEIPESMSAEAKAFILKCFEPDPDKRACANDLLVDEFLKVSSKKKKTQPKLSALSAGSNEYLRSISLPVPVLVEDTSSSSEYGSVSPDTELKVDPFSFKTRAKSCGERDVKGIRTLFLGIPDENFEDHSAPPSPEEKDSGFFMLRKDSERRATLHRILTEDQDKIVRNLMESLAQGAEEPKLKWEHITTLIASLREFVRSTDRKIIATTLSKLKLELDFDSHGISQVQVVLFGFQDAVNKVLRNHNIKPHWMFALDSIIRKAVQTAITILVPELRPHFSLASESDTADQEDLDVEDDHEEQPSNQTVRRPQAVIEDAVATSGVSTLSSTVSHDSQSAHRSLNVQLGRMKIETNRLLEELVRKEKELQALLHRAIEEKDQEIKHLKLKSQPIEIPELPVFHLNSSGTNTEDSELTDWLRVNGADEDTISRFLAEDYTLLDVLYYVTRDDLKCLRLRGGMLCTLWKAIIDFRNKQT

[8] = molecular target: Dual specificity protein kinase CLK1 (Homo sapiens) (UniProt P49759)
[9] = molecular target: Activin receptor type-2A (Homo sapiens) (UniProt P27037)
[10] = tested on: Epidermal growth factor receptor (Homo sapiens), P00533 [L858R,T790M]
[11] = molecular target: T2, MAP/microtubule affinity-regulating kinase 4 (Homo sapiens) (UniProt Q96L34)
T2 sequence (whole entry): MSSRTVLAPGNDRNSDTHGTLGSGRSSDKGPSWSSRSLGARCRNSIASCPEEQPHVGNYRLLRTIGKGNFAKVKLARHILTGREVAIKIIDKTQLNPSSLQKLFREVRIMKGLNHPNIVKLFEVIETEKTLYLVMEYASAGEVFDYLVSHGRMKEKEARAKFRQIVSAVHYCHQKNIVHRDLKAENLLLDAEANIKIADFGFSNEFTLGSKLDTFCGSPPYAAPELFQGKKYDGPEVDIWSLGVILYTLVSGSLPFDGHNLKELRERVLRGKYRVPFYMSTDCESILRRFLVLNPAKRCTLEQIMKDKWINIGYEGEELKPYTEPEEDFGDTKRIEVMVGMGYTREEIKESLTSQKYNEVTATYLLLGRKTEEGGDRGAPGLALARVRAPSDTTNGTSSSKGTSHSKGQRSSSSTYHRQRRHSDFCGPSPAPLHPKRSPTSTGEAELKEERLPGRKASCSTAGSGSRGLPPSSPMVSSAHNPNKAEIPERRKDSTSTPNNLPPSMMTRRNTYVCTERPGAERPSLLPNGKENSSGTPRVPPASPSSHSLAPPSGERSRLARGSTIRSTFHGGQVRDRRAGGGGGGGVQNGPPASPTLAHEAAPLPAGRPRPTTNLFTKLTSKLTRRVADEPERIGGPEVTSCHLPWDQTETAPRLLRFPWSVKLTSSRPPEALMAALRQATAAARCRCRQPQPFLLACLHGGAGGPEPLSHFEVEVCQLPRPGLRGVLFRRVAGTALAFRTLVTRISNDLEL

[12] = molecular target: cAMP-dependent protein kinase catalytic subunit beta (Homo sapiens) (UniProt P22694)

Measured: residual activity

Chain of Dual specificity mitogen-activated protein kinase kinase 1 (Homo sapiens) (Q02750 whole entry): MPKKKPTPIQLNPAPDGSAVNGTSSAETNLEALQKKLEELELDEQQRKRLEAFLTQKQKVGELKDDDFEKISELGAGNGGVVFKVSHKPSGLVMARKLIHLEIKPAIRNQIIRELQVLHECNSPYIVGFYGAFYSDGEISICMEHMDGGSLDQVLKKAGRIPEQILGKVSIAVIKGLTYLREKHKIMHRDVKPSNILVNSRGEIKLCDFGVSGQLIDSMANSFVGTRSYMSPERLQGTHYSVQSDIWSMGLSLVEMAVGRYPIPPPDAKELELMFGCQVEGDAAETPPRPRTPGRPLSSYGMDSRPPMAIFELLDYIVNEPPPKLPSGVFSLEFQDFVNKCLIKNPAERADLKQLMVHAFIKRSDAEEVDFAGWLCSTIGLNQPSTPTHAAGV
Chain of Activated CDC42 kinase 1 (Homo sapiens) (Q07912 whole entry, looked up): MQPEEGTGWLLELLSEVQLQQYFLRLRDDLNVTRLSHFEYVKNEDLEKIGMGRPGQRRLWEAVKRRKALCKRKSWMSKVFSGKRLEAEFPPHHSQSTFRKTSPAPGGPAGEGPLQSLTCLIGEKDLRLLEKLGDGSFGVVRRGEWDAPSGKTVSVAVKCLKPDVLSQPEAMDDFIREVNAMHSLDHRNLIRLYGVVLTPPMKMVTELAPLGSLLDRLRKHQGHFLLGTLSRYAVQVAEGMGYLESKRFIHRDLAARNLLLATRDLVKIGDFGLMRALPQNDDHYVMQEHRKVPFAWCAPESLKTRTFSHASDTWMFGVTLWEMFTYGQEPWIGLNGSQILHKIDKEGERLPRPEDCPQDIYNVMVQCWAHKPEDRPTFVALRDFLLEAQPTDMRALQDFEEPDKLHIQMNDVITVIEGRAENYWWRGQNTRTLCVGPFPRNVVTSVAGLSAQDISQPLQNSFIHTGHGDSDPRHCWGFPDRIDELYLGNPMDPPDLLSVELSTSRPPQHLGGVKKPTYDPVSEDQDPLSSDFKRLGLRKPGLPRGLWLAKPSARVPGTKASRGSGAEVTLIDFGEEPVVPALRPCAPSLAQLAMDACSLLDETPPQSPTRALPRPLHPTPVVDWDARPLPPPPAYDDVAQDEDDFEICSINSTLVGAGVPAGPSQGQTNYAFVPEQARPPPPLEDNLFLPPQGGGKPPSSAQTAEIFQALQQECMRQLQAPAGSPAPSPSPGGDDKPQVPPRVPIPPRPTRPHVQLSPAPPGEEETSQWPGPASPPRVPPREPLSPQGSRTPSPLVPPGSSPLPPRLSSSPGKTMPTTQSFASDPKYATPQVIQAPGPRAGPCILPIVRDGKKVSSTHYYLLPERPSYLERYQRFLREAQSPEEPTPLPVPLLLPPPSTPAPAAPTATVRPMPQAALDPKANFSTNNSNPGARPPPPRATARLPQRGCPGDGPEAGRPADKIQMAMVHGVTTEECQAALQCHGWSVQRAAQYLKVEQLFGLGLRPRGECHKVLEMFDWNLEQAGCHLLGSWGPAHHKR
Chain of Mitogen-activated protein kinase kinase kinase 1 (Homo sapiens) (Q13233 whole entry): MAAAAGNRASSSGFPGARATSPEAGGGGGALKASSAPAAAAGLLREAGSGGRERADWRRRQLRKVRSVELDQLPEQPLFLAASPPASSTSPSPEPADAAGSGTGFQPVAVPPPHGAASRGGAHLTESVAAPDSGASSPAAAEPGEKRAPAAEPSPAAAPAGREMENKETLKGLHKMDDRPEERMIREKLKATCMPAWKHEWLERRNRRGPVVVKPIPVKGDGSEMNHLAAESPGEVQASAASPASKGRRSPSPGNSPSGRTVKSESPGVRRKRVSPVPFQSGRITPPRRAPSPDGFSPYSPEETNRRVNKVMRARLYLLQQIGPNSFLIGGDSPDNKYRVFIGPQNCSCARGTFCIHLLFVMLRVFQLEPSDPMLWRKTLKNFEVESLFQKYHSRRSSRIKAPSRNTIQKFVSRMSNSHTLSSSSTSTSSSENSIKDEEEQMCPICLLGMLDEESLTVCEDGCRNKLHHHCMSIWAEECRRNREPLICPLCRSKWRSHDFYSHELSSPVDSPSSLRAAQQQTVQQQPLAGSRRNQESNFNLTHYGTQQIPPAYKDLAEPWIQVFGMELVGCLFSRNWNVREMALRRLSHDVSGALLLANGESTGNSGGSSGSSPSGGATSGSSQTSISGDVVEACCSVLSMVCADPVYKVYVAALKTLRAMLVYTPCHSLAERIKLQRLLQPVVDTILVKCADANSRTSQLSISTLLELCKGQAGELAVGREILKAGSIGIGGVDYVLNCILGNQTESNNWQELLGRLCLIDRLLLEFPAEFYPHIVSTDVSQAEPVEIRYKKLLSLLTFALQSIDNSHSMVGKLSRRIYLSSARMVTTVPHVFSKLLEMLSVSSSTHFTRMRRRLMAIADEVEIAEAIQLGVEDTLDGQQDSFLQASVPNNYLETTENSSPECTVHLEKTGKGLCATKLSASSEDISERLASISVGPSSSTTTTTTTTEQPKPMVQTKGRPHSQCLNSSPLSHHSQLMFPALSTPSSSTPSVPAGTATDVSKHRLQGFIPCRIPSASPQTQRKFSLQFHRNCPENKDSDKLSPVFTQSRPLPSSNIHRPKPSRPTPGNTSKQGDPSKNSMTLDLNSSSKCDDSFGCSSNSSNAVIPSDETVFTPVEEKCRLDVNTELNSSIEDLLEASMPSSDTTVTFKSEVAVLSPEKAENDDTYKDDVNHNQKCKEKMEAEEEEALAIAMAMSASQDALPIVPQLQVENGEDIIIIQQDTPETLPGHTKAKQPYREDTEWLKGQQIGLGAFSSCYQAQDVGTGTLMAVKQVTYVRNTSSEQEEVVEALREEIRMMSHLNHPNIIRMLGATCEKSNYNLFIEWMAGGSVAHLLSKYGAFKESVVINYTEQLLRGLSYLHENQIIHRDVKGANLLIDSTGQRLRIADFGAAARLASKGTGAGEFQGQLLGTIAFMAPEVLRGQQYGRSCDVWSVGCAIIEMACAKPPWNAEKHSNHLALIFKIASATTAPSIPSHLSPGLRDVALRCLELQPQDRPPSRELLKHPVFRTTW
Chain of Eukaryotic translation initiation factor 2-alpha kinase 1 (Homo sapiens) (Q9BQI3 whole entry): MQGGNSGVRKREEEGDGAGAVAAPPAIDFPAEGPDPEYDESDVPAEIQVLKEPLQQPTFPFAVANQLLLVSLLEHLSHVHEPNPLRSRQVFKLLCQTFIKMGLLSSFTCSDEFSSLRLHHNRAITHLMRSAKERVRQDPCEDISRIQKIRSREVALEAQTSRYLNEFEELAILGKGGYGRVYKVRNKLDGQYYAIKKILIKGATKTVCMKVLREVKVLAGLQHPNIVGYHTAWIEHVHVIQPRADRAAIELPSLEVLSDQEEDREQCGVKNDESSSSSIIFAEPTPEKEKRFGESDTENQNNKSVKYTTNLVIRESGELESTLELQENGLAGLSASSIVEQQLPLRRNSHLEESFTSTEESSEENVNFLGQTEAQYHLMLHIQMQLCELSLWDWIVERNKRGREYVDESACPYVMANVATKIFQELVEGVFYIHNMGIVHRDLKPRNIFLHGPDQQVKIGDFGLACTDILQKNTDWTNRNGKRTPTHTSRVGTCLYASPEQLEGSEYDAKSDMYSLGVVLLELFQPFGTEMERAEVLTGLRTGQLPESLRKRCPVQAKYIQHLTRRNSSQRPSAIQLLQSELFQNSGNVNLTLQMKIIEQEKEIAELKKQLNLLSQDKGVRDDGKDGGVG
Chain of Protein kinase C eta type (Homo sapiens) (P24723 whole entry): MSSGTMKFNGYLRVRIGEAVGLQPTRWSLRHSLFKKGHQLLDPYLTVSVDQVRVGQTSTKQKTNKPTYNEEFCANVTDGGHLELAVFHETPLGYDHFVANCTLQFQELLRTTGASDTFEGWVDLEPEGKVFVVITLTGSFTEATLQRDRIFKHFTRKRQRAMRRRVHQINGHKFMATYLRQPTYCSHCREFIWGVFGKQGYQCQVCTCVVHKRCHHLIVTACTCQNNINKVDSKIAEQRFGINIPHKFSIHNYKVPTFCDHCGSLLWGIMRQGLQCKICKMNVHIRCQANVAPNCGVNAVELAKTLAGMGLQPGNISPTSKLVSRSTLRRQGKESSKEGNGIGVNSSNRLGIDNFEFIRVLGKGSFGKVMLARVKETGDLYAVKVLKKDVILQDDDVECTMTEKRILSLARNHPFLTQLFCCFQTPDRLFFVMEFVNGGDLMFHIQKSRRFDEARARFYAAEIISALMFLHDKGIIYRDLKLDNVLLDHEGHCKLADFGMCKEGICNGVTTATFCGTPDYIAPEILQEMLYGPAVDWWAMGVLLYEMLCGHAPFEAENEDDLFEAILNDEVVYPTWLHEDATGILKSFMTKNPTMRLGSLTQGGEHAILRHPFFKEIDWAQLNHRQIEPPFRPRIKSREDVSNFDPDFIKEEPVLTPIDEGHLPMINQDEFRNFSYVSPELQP
Chain of Dual specificity protein kinase CLK1 (Homo sapiens) (P49759 whole entry, looked up): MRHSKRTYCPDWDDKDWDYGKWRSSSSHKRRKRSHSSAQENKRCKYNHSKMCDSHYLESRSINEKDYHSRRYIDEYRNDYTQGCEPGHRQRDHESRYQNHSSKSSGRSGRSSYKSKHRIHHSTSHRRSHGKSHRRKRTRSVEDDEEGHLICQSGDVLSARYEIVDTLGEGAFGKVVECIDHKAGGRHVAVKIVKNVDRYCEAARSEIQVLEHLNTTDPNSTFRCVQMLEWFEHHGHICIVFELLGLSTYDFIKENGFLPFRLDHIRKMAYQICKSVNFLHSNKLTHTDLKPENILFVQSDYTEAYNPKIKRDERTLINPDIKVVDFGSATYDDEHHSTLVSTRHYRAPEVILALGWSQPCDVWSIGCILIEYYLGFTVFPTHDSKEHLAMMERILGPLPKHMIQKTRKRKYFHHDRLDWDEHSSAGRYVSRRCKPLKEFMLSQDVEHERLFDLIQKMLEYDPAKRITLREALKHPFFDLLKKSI

CN(C)C(=O)Cn1cc(-c2nc(C3(c4ccc(-c5cnc(N)nc5)cc4)CC3)no2)cn1 [BI 0153]
inactive: [1] 82% | [2] 77% | [3] 96% | [4] 100% | [5] 88% | [6] 91% | [7] 91% | [8] 100% | [9] 84% | [10] 97% | [11] 96% | [12] 86%

CN(C)C(=O)Cn1cc(-c2nc([C@@](C)(c3ccc(-c4cnc(N)nc4)cc3)C3CC3)no2)cn1 [BI 665915]
inactive: [1] 89% | [2] 90% | [3] 91% | [4] 70% | [5] 96% | [6] 100% | [7] 99% | [8] 93% | [9] 81% | [10] 93% | [11] 95% | [12] 100%
